Test results reported in PubChem BioAssay AID1259407 (Chemical Carcinogenesis Research Information System (CCRIS), 2018).
The source made the active and inactive calls. The rule behind the calls is not given here.

System: CCRIS mutagenicity, Ames/micronucleus/aberration tests
Experiment: CCRIS mutagenicity studies

CC=O
mutagenic call (End Point: In vitro chromosomal aberrations, Test System: Chinese hamster lung (CHL/IU) cells, Metabolic Activation: None): active; positive (structural changes) | mutagenic call (End Point: In vitro chromosomal aberrations, Test System: Chinese hamster lung (CHL/IU) cells, Metabolic Activation: Rat, Liver, S9, Phenobarbital and 5,6-benzoflavone): active; positive (structural changes) | mutagenic call (End Point: In vivo micronucleus, Test System: Peripheral blood reticulocytes, Species: Mouse, Strain/Sex: Aldh2+/+ aldehyde dehydrogenase-2 sufficient /male, Route: Inhalation): inactive; negative | mutagenic call (End Point: In vivo micronucleus, Test System: Peripheral blood reticulocytes, Species: Mouse, Strain/Sex: Aldh2+/+ aldehyde dehydrogenase-2 sufficient /male, Route: Oral): inactive; negative | mutagenic call (End Point: In vivo micronucleus, Test System: Peripheral blood reticulocytes, Species: Mouse, Strain/Sex: Aldh2-/- aldehyde dehydrogenase-2 null /male, Route: Inhalation): active; positive | mutagenic call (End Point: In vivo micronucleus, Test System: Peripheral blood reticulocytes, Species: Mouse, Strain/Sex: Aldh2-/- aldehyde dehydrogenase-2 null /male, Route: Oral): active; positive | mutagenic call (Test System: AMES SALMONELLA TYPHIMURIUM, Strain/Indicator: TA98, Metabolic Activation: HAMSTER, LIVER, S-9, AROCLOR 1254, Method: STANDARD PLATE): inactive; negative | mutagenic call (Test System: AMES SALMONELLA TYPHIMURIUM, Strain/Indicator: TA98, Metabolic Activation: NONE, Method: GAS EXPOSURE): inactive; negative | mutagenic call (Test System: AMES SALMONELLA TYPHIMURIUM, Strain/Indicator: TA98, Metabolic Activation: NONE, Method: PREINCUBATION): inactive; negative | mutagenic call (Test System: AMES SALMONELLA TYPHIMURIUM, Strain/Indicator: TA98, Metabolic Activation: NONE, Method: STANDARD PLATE): inactive; negative | mutagenic call (Test System: AMES SALMONELLA TYPHIMURIUM, Strain/Indicator: TA98, Metabolic Activation: RAT LIVER S-9, PHENOBARBITAL AND BETA-NAPHTHOFLAVONE, Method: PREINCUBATION): inactive; negative | mutagenic call (Test System: AMES SALMONELLA TYPHIMURIUM, Strain/Indicator: TA98, Metabolic Activation: RAT, LIVER, S-9, AROCLOR 1254, Method: PREINCUBATION): inactive; negative | mutagenic call (Test System: AMES SALMONELLA TYPHIMURIUM, Strain/Indicator: TA98, Metabolic Activation: RAT, LIVER, S-9, AROCLOR 1254, Method: STANDARD PLATE): inactive; negative | mutagenic call (Test System: AMES SALMONELLA TYPHIMURIUM, Strain/Indicator: TA98, Metabolic Activation: RAT, LIVER, S-9, PHENOBARBITAL AND BETA-NAPHTHOFLAVONE, Method: GAS EXPOSURE): inactive; negative | mutagenic call (Test System: AMES SALMONELLA TYPHIMURIUM, Strain/Indicator: TA100, Metabolic Activation: HAMSTER, LIVER, S-9, AROCLOR 1254, Method: STANDARD PLATE): inactive; negative | mutagenic call (Test System: AMES SALMONELLA TYPHIMURIUM, Strain/Indicator: TA100, Metabolic Activation: MOUSE LIVER S-9, AROCLOR 1254, Method: VAPOR PHASE): inactive; negative | mutagenic call (Test System: AMES SALMONELLA TYPHIMURIUM, Strain/Indicator: TA100, Metabolic Activation: NONE, Method: GAS EXPOSURE): inactive; negative | mutagenic call (Test System: AMES SALMONELLA TYPHIMURIUM, Strain/Indicator: TA100, Metabolic Activation: NONE, Method: PREINCUBATION): inactive; negative | mutagenic call (Test System: AMES SALMONELLA TYPHIMURIUM, Strain/Indicator: TA100, Metabolic Activation: NONE, Method: STANDARD PLATE): inactive; negative | mutagenic call (Test System: AMES SALMONELLA TYPHIMURIUM, Strain/Indicator: TA100, Metabolic Activation: NONE, Method: VAPOR PHASE): inactive; negative | mutagenic call (Test System: AMES SALMONELLA TYPHIMURIUM, Strain/Indicator: TA100, Metabolic Activation: RAT LIVER S-9, AROCLOR 1254, Method: VAPOR PHASE): inactive; negative | mutagenic call (Test System: AMES SALMONELLA TYPHIMURIUM, Strain/Indicator: TA100, Metabolic Activation: RAT LIVER S-9, PHENOBARBITAL AND BETA-NAPHTHOFLAVONE, Method: PREINCUBATION): inactive; negative | mutagenic call (Test System: AMES SALMONELLA TYPHIMURIUM, Strain/Indicator: TA100, Metabolic Activation: RAT, LIVER, S-9, AROCLOR 1254, Method: PREINCUBATION): inactive; negative | mutagenic call (Test System: AMES SALMONELLA TYPHIMURIUM, Strain/Indicator: TA100, Metabolic Activation: RAT, LIVER, S-9, AROCLOR 1254, Method: STANDARD PLATE): inactive; negative | mutagenic call (Test System: AMES SALMONELLA TYPHIMURIUM, Strain/Indicator: TA100, Metabolic Activation: RAT, LIVER, S-9, PHENOBARBITAL AND BETA-NAPHTHOFLAVONE, Method: GAS EXPOSURE): inactive; negative | mutagenic call (Test System: AMES SALMONELLA TYPHIMURIUM, Strain/Indicator: TA102, Metabolic Activation: MOUSE LIVER S-9, AROCLOR 1254, Method: VAPOR PHASE): inactive; negative | mutagenic call (Test System: AMES SALMONELLA TYPHIMURIUM, Strain/Indicator: TA102, Metabolic Activation: NONE, Method: PREINCUBATION): inactive; negative | mutagenic call (Test System: AMES SALMONELLA TYPHIMURIUM, Strain/Indicator: TA102, Metabolic Activation: NONE, Method: VAPOR PHASE): inactive; negative | mutagenic call (Test System: AMES SALMONELLA TYPHIMURIUM, Strain/Indicator: TA102, Metabolic Activation: RAT, LIVER, S-9, AROCLOR 1254, Method: PREINCUBATION): inactive; negative | mutagenic call (Test System: AMES SALMONELLA TYPHIMURIUM, Strain/Indicator: TA104, Metabolic Activation: MOUSE LIVER S-9, AROCLOR 1254, Method: VAPOR PHASE): inactive; negative | mutagenic call (Test System: AMES SALMONELLA TYPHIMURIUM, Strain/Indicator: TA104, Metabolic Activation: NONE, Method: VAPOR PHASE): inactive; negative | mutagenic call (Test System: AMES SALMONELLA TYPHIMURIUM, Strain/Indicator: TA104, Metabolic Activation: RAT LIVER S-9, AROCLOR 1254, Method: VAPOR PHASE): inactive; negative | mutagenic call (Test System: AMES SALMONELLA TYPHIMURIUM, Strain/Indicator: TA1535, Metabolic Activation: HAMSTER, LIVER, S-9, AROCLOR 1254, Method: STANDARD PLATE): inactive; negative | mutagenic call (Test System: AMES SALMONELLA TYPHIMURIUM, Strain/Indicator: TA1535, Metabolic Activation: NONE, Method: GAS EXPOSURE): inactive; negative | mutagenic call (Test System: AMES SALMONELLA TYPHIMURIUM, Strain/Indicator: TA1535, Metabolic Activation: NONE, Method: PREINCUBATION): inactive; negative | mutagenic call (Test System: AMES SALMONELLA TYPHIMURIUM, Strain/Indicator: TA1535, Metabolic Activation: NONE, Method: STANDARD PLATE): inactive; negative | mutagenic call (Test System: AMES SALMONELLA TYPHIMURIUM, Strain/Indicator: TA1535, Metabolic Activation: RAT LIVER S-9, PHENOBARBITAL AND BETA-NAPHTHOFLAVONE, Method: PREINCUBATION): inactive; negative | mutagenic call (Test System: AMES SALMONELLA TYPHIMURIUM, Strain/Indicator: TA1535, Metabolic Activation: RAT, LIVER, S-9, AROCLOR 1254, Method: STANDARD PLATE): inactive; negative | mutagenic call (Test System: AMES SALMONELLA TYPHIMURIUM, Strain/Indicator: TA1535, Metabolic Activation: RAT, LIVER, S-9, PHENOBARBITAL AND BETA-NAPHTHOFLAVONE, Method: GAS EXPOSURE): inactive; negative | mutagenic call (Test System: AMES SALMONELLA TYPHIMURIUM, Strain/Indicator: TA1537, Metabolic Activation: HAMSTER, LIVER, S-9, AROCLOR 1254, Method: STANDARD PLATE): inactive; negative | mutagenic call (Test System: AMES SALMONELLA TYPHIMURIUM, Strain/Indicator: TA1537, Metabolic Activation: NONE, Method: GAS EXPOSURE): inactive; negative | mutagenic call (Test System: AMES SALMONELLA TYPHIMURIUM, Strain/Indicator: TA1537, Metabolic Activation: NONE, Method: PREINCUBATION): inactive; negative | mutagenic call (Test System: AMES SALMONELLA TYPHIMURIUM, Strain/Indicator: TA1537, Metabolic Activation: NONE, Method: STANDARD PLATE): inactive; negative | mutagenic call (Test System: AMES SALMONELLA TYPHIMURIUM, Strain/Indicator: TA1537, Metabolic Activation: RAT LIVER S-9, PHENOBARBITAL AND BETA-NAPHTHOFLAVONE, Method: PREINCUBATION): inactive; negative | mutagenic call (Test System: AMES SALMONELLA TYPHIMURIUM, Strain/Indicator: TA1537, Metabolic Activation: RAT, LIVER, S-9, AROCLOR 1254, Method: STANDARD PLATE): inactive; negative | mutagenic call (Test System: AMES SALMONELLA TYPHIMURIUM, Strain/Indicator: TA1537, Metabolic Activation: RAT, LIVER, S-9, PHENOBARBITAL AND BETA-NAPHTHOFLAVONE, Method: GAS EXPOSURE): inactive; negative | mutagenic call (Test System: AMES SALMONELLA TYPHIMURIUM, Strain/Indicator: TA1538, Metabolic Activation: HAMSTER, LIVER, S-9, AROCLOR 1254, Method: STANDARD PLATE): inactive; negative | mutagenic call (Test System: AMES SALMONELLA TYPHIMURIUM, Strain/Indicator: TA1538, Metabolic Activation: NONE, Method: PREINCUBATION): inactive; negative | mutagenic call (Test System: AMES SALMONELLA TYPHIMURIUM, Strain/Indicator: TA1538, Metabolic Activation: NONE, Method: STANDARD PLATE): inactive; negative | mutagenic call (Test System: AMES SALMONELLA TYPHIMURIUM, Strain/Indicator: TA1538, Metabolic Activation: RAT LIVER S-9, PHENOBARBITAL AND BETA-NAPHTHOFLAVONE, Method: PREINCUBATION): inactive; negative | mutagenic call (Test System: AMES SALMONELLA TYPHIMURIUM, Strain/Indicator: TA1538, Metabolic Activation: RAT, LIVER, S-9, AROCLOR 1254, Method: STANDARD PLATE): inactive; negative | mutagenic call (Test System: E. COLI, Strain/Indicator: WP2UVRA, Metabolic Activation: NONE, Method: GAS EXPOSURE): inactive; negative | mutagenic call (Test System: E. COLI, Strain/Indicator: WP2UVRA, Metabolic Activation: RAT, LIVER, S-9, PHENOBARBITAL AND BETA-NAPHTHOFLAVONE, Method: GAS EXPOSURE): inactive; negative | mutagenic call (Test System: E.COLI, Strain/Indicator: WP2UVRA, Metabolic Activation: NONE, Method: PREINCUBATION): inactive; negative | mutagenic call (Test System: E.COLI, Strain/Indicator: WP2UVRA, Metabolic Activation: RAT LIVER S-9, PHENOBARBITAL AND BETA-NAPHTHOFLAVONE, Method: PREINCUBATION): inactive; negative | mutagenic call (Test System: HUMAN SKIN FIBROBLASTS, Strain/Indicator: 6-THIOGUANINE, Metabolic Activation: NONE): active; positive | mutagenic call (Test System: MOUSE LYMPHOMA, Strain/Indicator: L5178Y (TK+/TK-), Metabolic Activation: RAT, LIVER, S-9, AROCLOR 1254, Method: SUSPENSION/PLATE): active; positive. reevaluation of results: inconclusive
